Reference: patent US9949479B2 (priority 2015, dated 2018)
Values joined by “and” are separate entries in the source; they are usually repeats but may differ in a detail not shown here. Equal values may be shown once. Read-outs that look alike come from different tables or passages of the source.

Tests used:
rust [1] = assay type: in vivo
[2] = design: species or system wheat; conditions: in vivo
leaf blight [3] = assay type: in vivo; conditions: Serial 5: preparation 100 g/mu; jinggangmycin 20, metconazole 0 g ai./mu
[4] = design: species or system wheat; conditions: in vivo; remark: listed apart in the source
rust [5] = assay type: in vivo; conditions: Serial 5: preparation 100; jinggangmycin 20, metconazole 0 g ai./mu
powdery mildew [6] = assay type: in vivo
powdery mildew [7] = assay type: in vivo; remark: listed apart in the source
[8] = assay type: in vivo, wheat
leaf rust fungus = assay type: in vivo; conditions: seed treatment; dose as in E133
Fusarium asiaticum = assay: microbe, parasite or virus in culture; assay type: cell-based
Fusarium graminearum = assay: microbe, parasite or virus in culture; assay type: cell-based; conditions: for inhibition at 50 µg/mL: Fusarium graminearum; for Average Fungal Colony Diameter F.g: sensitive strains
wheat scab [9] = assay type: in vivo, Fusarium spp.; conditions: Serial 5: preparation 100; jinggangmycin 20, metconazole 0 g ai./mu
leaf blight [10] = assay type: in vivo
leaf blight [11] = assay type: in vivo; conditions: dose as in E154
powdery mildew [12] = assay type: in vivo; remark: listed apart in the source
wheat scab [13] = assay type: in vivo, Fusarium spp.; conditions: Serial 5: preparation 100 g/mu; jinggangmycin 20, metconazole 0 g ai./mu
powdery mildew [14] = assay type: in vivo; conditions: dose as in E145
wheat scab [15] = assay type: in vivo, Fusarium spp.
powdery mildew [16] = assay type: in vivo; conditions: Serial 5: preparation 100 g/mu; jinggangmycin 20, metconazole 0 g ai./mu
wheat scab [17] = assay type: in vivo, Fusarium spp.; remark: listed apart in the source
powdery mildew [18] = assay type: in vivo; conditions: Serial 5: preparation 100; jinggangmycin 20, metconazole 0 g ai./mu
rust [19] = assay type: in vivo; remark: listed apart in the source
rust [20] = assay type: in vivo; conditions: dose as in E145
wheat scab [21] = assay type: in vivo, Fusarium spp.; remark: listed apart in the source
[22] = design: species or system wheat; conditions: in vivo; remark: listed apart in the source
powdery mildew [23] = assay type: in vivo; conditions: dose as in E154
[24] = assay type: in vivo, barley; conditions: dose as in E154
rust [25] = assay type: in vivo; conditions: dose as in E154
powdery mildew [26] = assay type: in vivo; remark: listed apart in the source
[27] = test system: DON toxin biosynthesis of carbendazim-resistant fusarium asiaticum; assay: microbe, parasite or virus in culture; assay type: cell-based; conditions: Fusarium asiaticum, read-out: DON Biosynthesis Inhibition Rate
leaf blight [28] = assay type: in vivo; conditions: Serial 5: preparation 100; jinggangmycin 20, metconazole 0 g ai./mu
[29] = Serial 11: jinggangmycin 36 g ai./mu alone
[30] = Serial 12: jinggangmycin 18 g ai./mu alone
[31] = Serial 13: jinggangmycin 15 g ai./mu alone
[32] = Serial 14: jinggangmycin 7.5 g ai./mu alone
[33] = Serial 15: jinggangmycin 5 g ai./mu alone
[34] = Serial 16: jinggangmycin 2.5 g ai./mu alone
[35] = Serial 17: jinggangmycin 3 g ai./mu alone
[36] = Serial 18: jinggangmycin 1.5 g ai./mu alone
[37] = Serial 19: jinggangmycin 1 g ai./mu alone
[38] = Serial 20: jinggangmycin 0.5 g ai./mu alone
[39] = Serial 5: preparation 75 g/mu, jinggangmycin 15 g ai./mu alone
[40] = Serial 6: preparation 60 g/mu, jinggangmycin 12 g ai./mu alone
[41] = Serial 7: preparation 45 g/mu, jinggangmycin 9 g ai./mu alone
[42] = Serial 8: preparation 30 g/mu, jinggangmycin 6 g ai./mu alone
[43] = Serial 5: preparation 50 g/mu, jinggangmycin 10 g ai./mu alone
[44] = Serial 6: preparation 37.5 g/mu, jinggangmycin 7.5 g ai./mu alone
[45] = Serial 7: preparation 15 g/mu, jinggangmycin 3 g ai./mu alone
[46] = Serial 5: preparation 100 g/mu, jinggangmycin 20 g ai./mu alone
[47] = Serial 6: preparation 80 g/mu, jinggangmycin 16 g ai./mu alone
[48] = Serial 7: preparation 40 g/mu, jinggangmycin 8 g ai./mu alone
[49] = Serial 8: preparation 20 g/mu, jinggangmycin 4 g ai./mu alone

OCC1=C[C@H](NC2C[C@H](CO)[C@@H](OC3O[C@H](CO)[C@@H](O)[C@H](O)[C@H]3O)[C@H](O)[C@H]2O)[C@H](O)[C@@H](O)[C@@H]1O (some centres unmarked) [Jinggangmycin A, jinggangmycin A]
Disease Index Prevention Effect % Rust (rust [1]; [29]): 7.6% | Disease Index Prevention Effect % Rust (rust [1]; [30]): 7.2% | Disease Index Prevention Effect % Rust (rust [1]; [31]): 7.2% | Disease Index Prevention Effect % Rust (rust [1]; [32]): 0% | Disease Index Prevention Effect % Rust (rust [1]; [33]): 0% | Disease Index Prevention Effect % Rust (rust [1]; [34]): 0% | Disease Index Prevention Effect % Rust (rust [1]; [35]): 0% | Disease Index Prevention Effect % Rust (rust [1]; [36]): 0% | Disease Index Prevention Effect % Rust (rust [1]; [37]): 0% | Disease Index Prevention Effect % Rust (rust [1]; [38]): 0% | Thousand Kernel Weight [2]: 39.2 g and 41.1 g and 39.8 g and 39.5 g | Disease Index Prevention Effect % Leaf Blight (leaf blight [3]): 7.8% | Thousand Kernel Weight [4]: 39.6 g and 39.0 g and 37.9 g | Disease Index Prevention Effect % Rust (rust [5]): 6.5% | Disease Index Prevention Effect % Powdery Mildew (powdery mildew [6]; [39]): 8.6% | Disease Index Prevention Effect % Powdery Mildew (powdery mildew [6]; [40]): 6.6% | Disease Index Prevention Effect % Powdery Mildew (powdery mildew [6]; [41]): 3.0% | Disease Index Prevention Effect % Powdery Mildew (powdery mildew [6]; [42]): 1.8% | Disease Index Prevention Effect % Powdery Mildew (powdery mildew [7]; [43]): 12.6% | Disease Index Prevention Effect % Powdery Mildew (powdery mildew [7]; [44]): 11.9% | Disease Index Prevention Effect % Powdery Mildew (powdery mildew [7]; [45]): 0% | Grain Toxin Content mg of DON/kg of grain [8, 39]: 2.86 mg of DON/kg of grain | Toxin Reduction Percentage % [8, 39]: 36.7% | Grain Toxin Content mg of DON/kg of grain [8, 40]: 3.82 mg of DON/kg of grain | Toxin Reduction Percentage % [8, 40]: 15.5% | Grain Toxin Content mg of DON/kg of grain [8, 41]: 4.02 mg of DON/kg of grain | Toxin Reduction Percentage % [8, 41]: 11.1% | Grain Toxin Content mg of DON/kg of grain [8, 42]: 4.14 mg of DON/kg of grain | Toxin Reduction Percentage % [8, 42]: 8.4% | Incidence Prevention Effect % Rust (leaf rust fungus): 0% and 4.5% | Average Fungal Colony Diameter F.a (Fusarium asiaticum): 76.3 mm and 75.6 mm and 69.4 mm | inhibition at 50 µg/mL (Fusarium asiaticum; Fusarium asiaticum, read-out: Growth Inhibition Rate F.a): 7.8% | inhibition at 50 µg/mL (Fusarium graminearum; read-out: Growth Inhibition Rate F.g): 6.5% | inhibition at 50 µg/mL (Fusarium graminearum; read-out: inhibitory effect on the growth of the two types of fusaria): 6.5 to 7.8% | Average Fungal Colony Diameter F.g (Fusarium graminearum; Jinggangmycin A 0.1 μg/mL): 76.3 mm | Average Fungal Colony Diameter F.g (Fusarium graminearum; Jinggangmycin A 1.0 μg/mL): 76.2 mm | Average Fungal Colony Diameter F.g (Fusarium graminearum; Jinggangmycin A 10.0 μg/mL): 75.4 mm | Average Fungal Colony Diameter F.g (Fusarium graminearum; Jinggangmycin A 50.0 μg/mL): 70.3 mm | Disease Index Prevention Effect % Head Blight (wheat scab [9]): 34.2% | Disease Index Prevention Effect % Leaf Blight (leaf blight [10]; [43]): 8.6% | Disease Index Prevention Effect % Leaf Blight (leaf blight [10]; [44]): 8.8% | Disease Index Prevention Effect % Leaf Blight (leaf blight [10]; [45]): 5.8% | Disease Index Prevention Effect % Leaf Blight (leaf blight [11]): 0% and 6.9% | Disease Index Prevention Effect % Powdery Mildew (powdery mildew [12]; [46]): 12.6% | Disease Index Prevention Effect % Powdery Mildew (powdery mildew [12]; [47]): 11.9% | Disease Index Prevention Effect % Powdery Mildew (powdery mildew [12]; [48]): 0% | Disease Index Prevention Effect % Powdery Mildew (powdery mildew [12]; [49]): 0% | Disease Index Prevention Effect % Head Blight (wheat scab [13]): 40.2% | Disease Index Prevention Effect % Powdery Mildew (powdery mildew [14]): 7.5% and 4.5% and 0% | Disease Index Prevention Effect % Head Blight (wheat scab [15]; [46]): 32.0% | Disease Index Prevention Effect % Head Blight (wheat scab [15]; [47]): 25.4% | Disease Index Prevention Effect % Head Blight (wheat scab [15]; [48]): 14.7% | Disease Index Prevention Effect % Head Blight (wheat scab [15]; [49]): 0% | Disease Index Prevention Effect % Powdery Mildew (powdery mildew [16]): 10.6% | Disease Index Prevention Effect % Head Blight (wheat scab [17]; [43]): 32.4% | Disease Index Prevention Effect % Head Blight (wheat scab [17]; [44]): 24.2% | Disease Index Prevention Effect % Head Blight (wheat scab [17]; [45]): 0% | Disease Index Prevention Effect % Powdery Mildew (powdery mildew [18]): 10.6% | Disease Index Prevention Effect % Rust (rust [19]; [46]): 6.8% | Disease Index Prevention Effect % Rust (rust [19]; [47]): 6.5% | Disease Index Prevention Effect % Rust (rust [19]; [48]): 0% | Disease Index Prevention Effect % Rust (rust [19]; [49]): 0% | Disease Index Prevention Effect % Rust (rust [20]): 4.9% and 3.8% and 0% | Disease Index Prevention Effect % Head Blight (wheat scab [21]; [39]): 34.2% | Disease Index Prevention Effect % Head Blight (wheat scab [21]; [40]): 10.2% | Disease Index Prevention Effect % Head Blight (wheat scab [21]; [41]): 9.4% | Disease Index Prevention Effect % Head Blight (wheat scab [21]; [42]): 7.4% | Thousand Kernel Weight [22]: 43.2 g and 42.8 g and 42.9 g and 42.6 g and 42.0 g and 39.6 g | Disease Index Prevention Effect % Powdery Mildew (powdery mildew [23]): 0% and 3.4% | Grain Toxin Content [24]: 6.67 mg of DON/Kg of grain and 5.28 mg of DON/Kg of grain and 4.62 mg of DON/Kg of grain and 3.86 mg of DON/Kg of grain and 3.49 mg of DON/Kg of grain | Disease Index Prevention Effect % Rust (rust [25]): 0% | Disease Index Prevention Effect % Powdery Mildew (powdery mildew [26]; [29]): 8.5% | Disease Index Prevention Effect % Powdery Mildew (powdery mildew [26]; [30]): 7.8% | Disease Index Prevention Effect % Powdery Mildew (powdery mildew [26]; [31]): 7.6% | Disease Index Prevention Effect % Powdery Mildew (powdery mildew [26]; [32]): 0% | Disease Index Prevention Effect % Powdery Mildew (powdery mildew [26]; [33]): 0% | Disease Index Prevention Effect % Powdery Mildew (powdery mildew [26]; [34]): 0% | Disease Index Prevention Effect % Powdery Mildew (powdery mildew [26]; [35]): 0% | Disease Index Prevention Effect % Powdery Mildew (powdery mildew [26]; [36]): 0% | Disease Index Prevention Effect % Powdery Mildew (powdery mildew [26]; [37]): 0% | Disease Index Prevention Effect % Powdery Mildew (powdery mildew [26]; [38]): 0% | inhibition at 1 µg/mL ([27]; 168 h): 28.6% | inhibition at 10 µg/mL ([27]; 168 h): 35.5% | inhibition at 100 µg/mL ([27]; 168 h): 45.2% | inhibition at 1000 µg/mL ([27]; 168 h): 65.5% | inhibition at 10000 µg/mL ([27]; 168 h): 75.9% | inhibition at 1 µg/mL ([27]; 336 h): 1.7% | inhibition at 10 µg/mL ([27]; 336 h): 7.87% | inhibition at 100 µg/mL ([27]; 336 h): 29.9% | inhibition at 1000 µg/mL ([27]; 336 h): 57% | inhibition at 10000 µg/mL ([27]; 336 h): 75.4% | Disease Index Prevention Effect % Leaf Blight (leaf blight [28]): 7.8%
